Experimental data taken from US20240400606A1, “SMALL MOLECULE ACTIVATORS OF THE IMMUNE SYSTEM” (THE BOARD OF TRUSTEES OF THE UNIVERSITY OF ILLINOIS, priority 2021, published 2024).

Assays:
IMPAD1 = IMPAD1 (Homo sapiens (Human), UniProt Q9NX62); assay: IMPAD1 in vitro activity assay; type: biochemical
Protocol: IMPAD1 Assay. Working stock solutions of IMPAD1 (0.1 mg/mL in 1× activity assay buffer), adenosine 3′,5′-diphosphate (PAP; dissolved first in DMSO to make stock solution then diluted to 200 μM in 1× assay buffer), and compound of interest in DMSO were prepared. Two technical replicates were assayed for each sample. Reaction mixes were prepared by mixing 6 μL IMPAD1 stock solution, 2.4 μL compound of interest stock or DMSO, 21.6 μL 1× assay buffer to make 30 μL reaction mix. Amount of reaction mix was scaled accordingly to number of samples assayed. 15 μL of reaction mix was dispensed to each well (384-well plate). 15 μL 200 μM PAP stock solution was added to each well. The reaction was incubated at 37° C. for 45 minutes, then quenched by addition of 15 μL of malachite green solution A, followed by addition of 15 μL of malachite green solution B. The plate was left at room temperature for 20 minutes for color stabilization, then absorbance was read at 620 nm. Phosphate standard curve generation was identical to that described under “Optimized Coupled Chromogenic SULT2B1b Activity Assay”, 384-well format. […]
Percent inhibition was calculated as: 100−[100×[(Phosphate produced per wellaverage, compound of interest−Phosphate produced per wellaverage, PAP)/(Phosphate produced per wellaverage, IMPAD1−Phosphate produced per wellaverage, PAP)]].

[1] = tested on: whole cell CS levels in MDG; assay: Whole cell cholesterol sulfate quantification, MDG; type: cell-based, human; details: 6.25 μM, 72 hours
Protocol: General Whole Cell Cholesterol Sulfate Quantification. 60×15 mm tissue culture dishes were seeded with MCF-7 at 2×10^6 cells/dish or T47D at 1×10^6 cells per dish, 5 mL total media volume, and allowed to adhere overnight. Compounds of interest were dissolved in DMSO. Cells were treated with 25 μL 1.25 mM compound of interest stock (6.25 μM final compound concentration, 0.5% final DMSO concentration) or DMSO for 72 hours. To harvest, media was aspirated, and cells were washed once with PBS before detaching with trypsin. Trypsin was quenched with media. Cells were centrifuged at 300 xg for 3 minutes and supernatant was discarded. Cells were resuspended in media and counted using a Countess 3 automated cell counter (Thermo Fisher Scientific). 1.5×10^6 cells were collected, washed twice with 1 mL PBS, then pelleted and stored at −80° C. until lysis. […] 100 μL of supernatant was transferred to an empty Eppendorf tube and submitted for LC-MS/MS quantification (UIUC Metabolomics Center), along with 5 mM cholesterol sulfate sodium salt standard.
General LC-MS/MS Quantification Method. Both DHEAS and CS samples were analyzed by 6500 QTRAP (Sciex, Redwood City, CA) liquid chromatography-tandem mass spectrometry. […] Cholesterol-sulfate and DHEA-sulfate were detected by multiple reaction monitoring (MRM) at m/z 465→97.0 and 367.0→97.0 respectively. […]

[2] = tested on: free cholesterol levels in MCF-7; assay: Whole cell cholesterol assay; type: cell-based, human; details: MCF-7, 6.25 μM, 72 hours
Protocol: Whole Cell Cholesterol Assay. Assay was run according to manufacturer's instructions. Briefly, 5000 MCF-7 cells were plated in 99 μL media in a 96-well plate and allowed to adhere overnight before DMSO solutions of compounds were added to each well. Final concentration of DMSO in each well is 1%, final volume: 100 μL. At the end of 72 hours, media was aspirated, and cells were washed twice with 100 μL PBS. 50 μL of cholesterol lysis solution was added and cells were incubated for 30 minutes at 37° C. 50 μL of sample was then transferred to a 96-well white walled assay plate. 50 μL of cholesterol detection reagent was added to all wells and incubated at room temperature for 1 hour. Luminescence was read using a SpectraMax M3 plate reader (Molecular Devices). Cholesterol levels were determined by use of a cholesterol standard curve.

[3] = in vivo, ip
Protocol: Tolerability Studies. Three female C57/BL6 mice were administered single IP doses (formulated in 50% DMSO/50% Peg400) of compound (2). Compound was formulated at a concentration of 20-40 mg/mL depending on dose. Mice were injected with 100 μL formulated compound. Mouse weight and lethality were tracked as indicators of compound tolerability. Tolerability of vehicle had been previously assessed.
Maximum tolerated dose mouse studies: Compound (3) was formulated in 50% DMSO, 50% Peg400 at 20 mg/mL (for 100 mg/kg injection), 25 mg/mL (for 125 mg/kg injection), or 40 mg/mL (for 200 mg/kg injection). Compound was injected intraperitoneally into female C57BL/6 mice, and the mice were monitored for signs of toxicity.

Sequence of IMPAD1 (Q9NX62 whole entry): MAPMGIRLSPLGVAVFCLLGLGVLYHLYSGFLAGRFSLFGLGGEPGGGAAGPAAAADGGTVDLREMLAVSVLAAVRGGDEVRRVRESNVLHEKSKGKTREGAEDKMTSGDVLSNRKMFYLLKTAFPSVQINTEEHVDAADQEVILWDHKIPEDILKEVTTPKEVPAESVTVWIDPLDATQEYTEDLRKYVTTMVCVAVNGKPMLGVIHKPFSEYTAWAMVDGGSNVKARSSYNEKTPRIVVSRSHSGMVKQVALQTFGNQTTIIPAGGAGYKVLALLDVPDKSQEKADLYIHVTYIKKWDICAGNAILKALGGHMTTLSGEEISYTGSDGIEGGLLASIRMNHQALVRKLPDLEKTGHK

Row | SMILES | inhibition of IMPAD1 (IMPAD1) | whole cell CS levels vs DMSO [1] | free cholesterol levels vs DMSO [2] | tolerated dose ([3]; female, C57BL/6, mouse) | tolerability ([3]; mouse, 200 mg/kg)
1 | C[C@]12CCC(=O)N(Cc3ccc(Cl)cc3)C1=CC[C@@H]1[C@@H]2C(=O)C[C@]2(C)C(=O)CC[C@@H]12 [Compound 1, (4aR,4bS,6aS,9aS,9bS)-1-(4-chlorobenzyl)-4a,6a-dimethyl-3,4,4a,6,6a,8,9,9a,9b,10-decahydro-1H-indeno[5,4-f]quinoline-2,5,7(4bH)-trione] | does not inhibit | – | – | – | –
2 | C[C@]12CCC(=O)N(Cc3ccc(Br)cc3)C1=CC[C@@H]1[C@@H]2C(=O)C[C@]2(C)C(=O)CC[C@@H]12 [Compound 3, (4aR,4bS,6aS,9aS,9bS)-1-(4-bromobenzyl)-4a,6a-dimethyl-3,4,4a,6,6a,8,9,9a,9b,10-decahydro-1H-indeno[5,4-f]quinoline-2,5,7(4bH)-trione] | – | confirmed | no statistical difference | up to 200 mg/kg | not tolerated
